Test results as given in US6204282A, “Benzimidazole compounds that are vitronectin receptor antagonists” (Schering Corporation, priority 1999, dated 2001).

Target: αllbβ3 receptor (Homo sapiens, UniProt P05106+P08514)
Experiment: similar competitive assay with purified αllbβ3 receptor and 125I-echistatin (specificity index versus αvβ3)
Format: binding
Conditions: IC50 αllbβ3 / IC50 αvβ3
Description: The specificity index, which is a measure of the relative binding affinity for αvβ3 versus αllbβ3, may be determined by dividing the IC50 value for αllbβ3by the IC50 value for αvβ3.

Sequence of αllbβ3 receptor (P08514 32-1039): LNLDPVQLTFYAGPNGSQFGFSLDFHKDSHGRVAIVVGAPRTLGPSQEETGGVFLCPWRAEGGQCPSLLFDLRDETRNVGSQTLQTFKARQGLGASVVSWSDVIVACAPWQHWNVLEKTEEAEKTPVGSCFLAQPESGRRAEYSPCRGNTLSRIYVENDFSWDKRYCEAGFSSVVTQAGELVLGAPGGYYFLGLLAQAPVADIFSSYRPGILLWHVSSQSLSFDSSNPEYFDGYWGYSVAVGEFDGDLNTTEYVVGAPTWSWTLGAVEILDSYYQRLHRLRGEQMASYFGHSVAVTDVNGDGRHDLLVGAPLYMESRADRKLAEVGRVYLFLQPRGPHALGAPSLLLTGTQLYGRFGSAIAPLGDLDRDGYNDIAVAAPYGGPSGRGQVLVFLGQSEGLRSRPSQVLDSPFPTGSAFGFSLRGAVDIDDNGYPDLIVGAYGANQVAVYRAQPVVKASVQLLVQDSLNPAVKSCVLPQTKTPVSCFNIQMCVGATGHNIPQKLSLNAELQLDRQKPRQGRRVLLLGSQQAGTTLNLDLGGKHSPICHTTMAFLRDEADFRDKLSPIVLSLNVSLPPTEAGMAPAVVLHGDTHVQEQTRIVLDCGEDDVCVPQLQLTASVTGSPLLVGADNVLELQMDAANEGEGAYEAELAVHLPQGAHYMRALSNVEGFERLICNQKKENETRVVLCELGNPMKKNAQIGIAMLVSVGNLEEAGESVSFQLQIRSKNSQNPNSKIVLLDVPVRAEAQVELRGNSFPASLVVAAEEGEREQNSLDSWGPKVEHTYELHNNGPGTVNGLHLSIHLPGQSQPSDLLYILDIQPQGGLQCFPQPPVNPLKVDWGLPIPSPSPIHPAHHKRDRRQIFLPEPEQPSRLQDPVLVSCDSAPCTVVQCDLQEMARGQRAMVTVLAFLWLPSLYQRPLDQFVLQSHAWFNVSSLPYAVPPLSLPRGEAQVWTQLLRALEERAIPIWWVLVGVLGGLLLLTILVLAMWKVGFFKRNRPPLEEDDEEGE
Sequence of αllbβ3 receptor (P05106 27-788): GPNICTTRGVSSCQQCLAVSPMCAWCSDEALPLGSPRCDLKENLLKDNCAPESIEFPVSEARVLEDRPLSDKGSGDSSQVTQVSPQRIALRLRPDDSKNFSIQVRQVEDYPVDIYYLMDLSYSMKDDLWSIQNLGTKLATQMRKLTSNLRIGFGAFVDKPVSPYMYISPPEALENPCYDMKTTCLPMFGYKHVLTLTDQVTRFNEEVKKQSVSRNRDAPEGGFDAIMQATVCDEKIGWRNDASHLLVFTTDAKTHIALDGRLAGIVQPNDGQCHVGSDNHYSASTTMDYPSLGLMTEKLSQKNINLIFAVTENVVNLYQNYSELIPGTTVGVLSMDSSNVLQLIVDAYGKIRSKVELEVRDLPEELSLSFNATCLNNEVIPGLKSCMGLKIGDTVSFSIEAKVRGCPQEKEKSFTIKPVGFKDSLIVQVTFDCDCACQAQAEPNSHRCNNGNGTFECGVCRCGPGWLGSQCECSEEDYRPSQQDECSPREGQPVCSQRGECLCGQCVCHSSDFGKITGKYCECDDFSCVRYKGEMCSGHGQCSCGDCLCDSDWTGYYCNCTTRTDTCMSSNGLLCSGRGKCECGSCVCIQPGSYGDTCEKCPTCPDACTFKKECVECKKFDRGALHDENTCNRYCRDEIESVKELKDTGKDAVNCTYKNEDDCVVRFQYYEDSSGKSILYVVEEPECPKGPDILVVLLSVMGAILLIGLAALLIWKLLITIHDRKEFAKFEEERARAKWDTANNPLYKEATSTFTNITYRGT

| SMILES | SPECIFICITY αIIb β3/αvβ3 (specificity index) |
| --- | --- |
| CC(C)C(=O)N(Cc1ccc(C(=O)NC[C@H](NC(=O)OCc2ccccc2)C(=O)O)cc1)Cc1nc2ccccc2[nH]1 [Example 5-13] | 38 |
| O=C(N[C@@H](CNC(=O)c1ccc(CN(Cc2nc3ccccc3[nH]2)C(=O)CCC2CCCC2)cc1)C(=O)O)OCc1ccccc1 [Example 5-14] | 117 |
| O=C(N[C@@H](CNC(=O)c1ccc(CN(Cc2nc3ccccc3[nH]2)C(=O)C2CCCCC2)cc1)C(=O)O)OCc1ccccc1 [Example 5-15] | 95 |
| O=C(N[C@@H](CNC(=O)c1ccc(CN(Cc2nc3ccccc3[nH]2)C(=O)CCc2ccccc2)cc1)C(=O)O)OCc1ccccc1 [Example 5-16] | 899 |
| CCOC(=O)CCC(=O)N(Cc1ccc(C(=O)NC[C@H](NC(=O)OCc2ccccc2)C(=O)O)cc1)Cc1nc2ccccc2[nH]1 [Example 5-17] | 76 |
| CC(=O)OC(C(=O)N(Cc1ccc(C(=O)NC[C@H](NC(=O)OCc2ccccc2)C(=O)O)cc1)Cc1nc2ccccc2[nH]1)c1ccccc1 (stereo partly shown) [Example 5-18] | 82 |
| O=C(N[C@@H](CNC(=O)c1ccc(CN(Cc2nc3ccccc3[nH]2)C(=O)COc2ccccc2)cc1)C(=O)O)OCc1ccccc1 [Example 5-19] | 34 |
| CCOC(=O)N(Cc1ccc(C(=O)NC[C@H](NC(=O)OCc2ccccc2)C(=O)O)cc1)Cc1nc2ccccc2[nH]1 [Example 5-20] | 15 |
| COc1ccc(OC(=O)N(Cc2ccc(C(=O)NC[C@H](NC(=O)OCc3ccccc3)C(=O)O)cc2)Cc2nc3ccccc3[nH]2)cc1 [Example 5-21] | 41 |
| O=C(N[C@@H](CNC(=O)c1ccc(CN(Cc2nc3ccccc3[nH]2)C(=O)C2CC2c2ccccc2)cc1)C(=O)O)OCc1ccccc1 (stereo partly shown) [Example 5-22] | 26 |
| CSCC(=O)N(Cc1ccc(C(=O)NC[C@H](NC(=O)OCc2ccccc2)C(=O)O)cc1)Cc1nc2ccccc2[nH]1 [Example 5-23] | 22 |
| CN(C)CC(=O)N(Cc1ccc(C(=O)NC[C@H](NC(=O)OCc2ccccc2)C(=O)O)cc1)Cc1nc2ccccc2[nH]1 [Example 5-24] | 14 |
| COCCC(=O)N(Cc1ccc(C(=O)NC[C@H](NC(=O)OCc2ccccc2)C(=O)O)cc1)Cc1nc2ccccc2[nH]1 [Example 5-25] | 52 |
| CCOCC(=O)N(Cc1ccc(C(=O)NC[C@H](NC(=O)OCc2ccccc2)C(=O)O)cc1)Cc1nc2ccccc2[nH]1 [Example 5-26] | 91 |
| O=C(N[C@@H](CNC(=O)c1ccc(CN(Cc2nc3ccccc3[nH]2)C(=O)Nc2ccccc2)cc1)C(=O)O)OCc1ccccc1 [Example 5-27] | 481 |
| O=C(N[C@@H](CNC(=O)c1ccc(CN(Cc2nc3ccccc3[nH]2)C(=O)NC2CCCCC2)cc1)C(=O)O)OCc1ccccc1 [Example 5-28] | 1136 |
| O=C(N[C@@H](CNC(=O)c1ccc(CN(Cc2nc3ccccc3[nH]2)C(=O)NCc2ccccc2)cc1)C(=O)O)OCc1ccccc1 [Example 5-29] | 144 |
| O=C(N[C@@H](CNC(=O)c1ccc(CN(Cc2nc3ccccc3[nH]2)C(=S)NCCc2ccccc2)cc1)C(=O)O)OCc1ccccc1 [Example 5-31] | 80 |
| CCOc1ccc(NC(=O)N(Cc2ccc(C(=O)NC[C@H](NC(=O)OCc3ccccc3)C(=O)O)cc2)Cc2nc3ccccc3[nH]2)cc1 [Example 5-32] | 151 |
| CN(Cc1ccc(C(=O)NC[C@H](NC(=O)OCc2ccccc2)C(=O)O)cc1)Cc1nc2ccccc2[nH]1 [Example 5-33] | 128 |
| CC(C)(C)NC(=O)N(Cc1ccc(C(=O)NC[C@H](NC(=O)OCc2ccccc2)C(=O)O)cc1)Cc1nc2ccccc2[nH]1 [Example 5-34] | 421 |
| O=C(N[C@@H](CNC(=O)c1ccc(CN(Cc2nc3ccccc3[nH]2)C(=O)Nc2ccc(Cl)cc2)cc1)C(=O)O)OCc1ccccc1 [Example 5-35] | 240 |
| CC(NC(=O)N(Cc1ccc(C(=O)NC[C@H](NC(=O)OCc2ccccc2)C(=O)O)cc1)Cc1nc2ccccc2[nH]1)c1cccc2ccccc12 (stereo partly shown) [Example 5-36] | 129 |
| O=C(N[C@@H](CNC(=O)c1ccc(CN(Cc2nc3ccccc3[nH]2)C(=O)Nc2cccc3ccccc23)cc1)C(=O)O)OCc1ccccc1 [Example 5-37] | 203 |
| O=C(N[C@@H](CNC(=O)c1ccc(CN(Cc2nc3ccccc3[nH]2)C(=O)Nc2ccc(-c3ccccc3)cc2)cc1)C(=O)O)OCc1ccccc1 [Example 5-38] | 49 |

| SMILES | SPECIFICITY αIIb β3/αvβ3 (specificity index) |
| --- | --- |
| CCCNC(=O)N(Cc1ccc(C(=O)NC[C@H](NC(=O)OCc2ccccc2)C(=O)O)cc1)Cc1nc2ccccc2[nH]1 [Example 5-39] | 223 |
| O=C(N[C@@H](CNC(=O)c1ccc(CN(Cc2nc3ccccc3[nH]2)C(=O)NC23CC4CC(CC(C4)C2)C3)cc1)C(=O)O)OCc1ccccc1 [Example 5-40] | 288 |
| O=C(N[C@@H](CNC(=O)c1ccc(CN(Cc2nc3ccccc3[nH]2)C(=O)N2CCOCC2)cc1)C(=O)O)OCc1ccccc1 [Example 5-42] | 39 |
| CCNC(=O)N(Cc1ccc(C(=O)NC[C@H](NC(=O)OCc2ccccc2)C(=O)O)cc1)Cc1nc2ccccc2[nH]1 [Example 5-43] | 585 |
| O=C(N[C@@H](CNC(=O)c1ccc(CN(Cc2nc3ccccc3[nH]2)C(=O)NS(=O)(=O)c2ccc(Cl)cc2)cc1)C(=O)O)OCc1ccccc1 [Example 5-44] | 66.3 |
| CCOC(=O)CNC(=O)N(Cc1ccc(C(=O)NC[C@H](NC(=O)OCc2ccccc2)C(=O)O)cc1)Cc1nc2ccccc2[nH]1 [Example 5-45, N^3-[4-[(benzimidazol-2-yl)methyl][[(ethoxycarbonylmethyl)amino]-carbonyl]aminomethylbenzoyl]-N^2 -Cbz-L-2,3-diaminopropionic acid] | 1333 |
| COc1ccc(NC(=S)N(Cc2ccc(C(=O)NC[C@H](NC(=O)OCc3ccccc3)C(=O)O)cc2)Cc2nc3ccccc3[nH]2)cc1 [Example 5-46] | 1065 |
| CCOC(=O)c1ccc(NC(=O)N(Cc2ccc(C(=O)NC[C@H](NC(=O)OCc3ccccc3)C(=O)O)cc2)Cc2nc3ccccc3[nH]2)cc1 [Example 5-47] | 1252 |
| CCOC(=O)[C@H](CCSC)NC(=O)N(Cc1ccc(C(=O)NC[C@H](NC(=O)OCc2ccccc2)C(=O)O)cc1)Cc1nc2ccccc2[nH]1 [Example 5-48] | 2028 |
| O=C(N[C@@H](CNC(=O)c1ccc(CN(Cc2nc3ccccc3[nH]2)C(=O)Nc2ccc(F)cc2)cc1)C(=O)O)OCc1ccccc1 [Example 5-49] | 504 |
| CCOC(=O)[C@H](C)NC(=O)N(Cc1ccc(C(=O)NC[C@H](NC(=O)OCc2ccccc2)C(=O)O)cc1)Cc1nc2ccccc2[nH]1 [Example 5-50] | 805 |
| CCOC(=O)[C@@H](NC(=O)N(Cc1ccc(C(=O)NC[C@H](NC(=O)OCc2ccccc2)C(=O)O)cc1)Cc1nc2ccccc2[nH]1)C(C)C [Example 5-51] | 1210 |
| CCOC(=O)[C@H](Cc1ccccc1)NC(=O)N(Cc1ccc(C(=O)NC[C@H](NC(=O)OCc2ccccc2)C(=O)O)cc1)Cc1nc2ccccc2[nH]1 [Example 5-52] | 448 |
| CCOC(=O)[C@H](CC(C)C)NC(=O)N(Cc1ccc(C(=O)NC[C@H](NC(=O)OCc2ccccc2)C(=O)O)cc1)Cc1nc2ccccc2[nH]1 [Example 5-53] | 483 |
| CCOC(=O)CCNC(=O)N(Cc1ccc(C(=O)NC[C@H](NC(=O)OCc2ccccc2)C(=O)O)cc1)Cc1nc2ccccc2[nH]1 [Example 5-54] | 413 |
| O=C(N[C@@H](CNC(=O)c1ccc(CN(Cc2nc3ccccc3[nH]2)C(=S)NC2CCCCC2)cc1)C(=O)O)OCc1ccccc1 [Example 5-55] | 620 |
| COCCNC(=S)N(Cc1ccc(C(=O)NC[C@H](NC(=O)OCc2ccccc2)C(=O)O)cc1)Cc1nc2ccccc2[nH]1 [Example 5-56] | 514 |
| O=C(N[C@H](CNC(=O)c1ccc(CNCc2nc3ccccc3[nH]2)cc1)C(=O)O)OCc1ccccc1 [Example 5-57] | 1.43 |
| COCC(=O)N(Cc1ccc(C(=O)NC[C@@H](NC(=O)OCc2ccccc2)C(=O)O)cc1)Cc1nc2ccccc2[nH]1 [Example 5-58] | 46 |
| O=C(N[C@H](CNC(=O)c1ccc(CN(Cc2nc3ccccc3[nH]2)C(=O)CCc2ccccc2)cc1)C(=O)O)OCc1ccccc1 [Example 5-59] | 65 |
| CC(C)(C)OC(=O)N[C@@H](CNC(=O)c1ccc(CNCc2nc3ccccc3[nH]2)cc1)C(=O)O [Example 5-60] | 90 |
| CC(=O)N(Cc1ccc(C(=O)NC[C@H](NC(=O)OC(C)(C)C)C(=O)O)cc1)Cc1nc2ccccc2[nH]1 [Example 5-61] | 324 |
| COCC(=O)N(Cc1ccc(C(=O)NC[C@H](NC(=O)OC(C)(C)C)C(=O)O)cc1)Cc1nc2ccccc2[nH]1 [Example 5-62] | 419 |
| CC(C)(C)OC(=O)N[C@@H](CNC(=O)c1ccc(CN(Cc2nc3ccccc3[nH]2)C(=O)CCc2ccccc2)cc1)C(=O)O [Example 5-63] | 293 |
